Measurements: BigSolDB 2.1

With `CN1COCN(Cc2cnc(Cl)s2)C1=N[N+](=O)[O-]` the solubility (mole fraction) (in 1,4-dioxane, 288.15 K) was 0.00255, the solubility (mole fraction) (in 1,4-dioxane, 293.15 K) was 0.00328 and the solubility (mole fraction) (in 1,4-dioxane, 298.15 K) was 0.00404. For the same compound, the solubility (mole fraction) (in 1,4-dioxane, 303.15 K) was 0.00523, the solubility (mole fraction) (in 1,4-dioxane, 308.15 K) was 0.00637 and the solubility (mole fraction) (in 1,4-dioxane, 313.15 K) was 0.00792. It also gave a solubility (mole fraction) (in 1,4-dioxane, 318.15 K) of 0.00985, a solubility (mole fraction) (in 1,4-dioxane, 323.15 K) of 0.0123 and a solubility (mole fraction) (in 2-ethoxyethanol, 278.15 K) of 0.00319. For the same compound, the solubility (mole fraction) (in 2-ethoxyethanol, 283.15 K) was 0.00411, the solubility (mole fraction) (in 2-ethoxyethanol, 288.15 K) was 0.00523 and the solubility (mole fraction) (in 2-ethoxyethanol, 293.15 K) was 0.00627. It also gave a solubility (mole fraction) (in 2-ethoxyethanol, 298.15 K) of 0.00722, a solubility (mole fraction) (in 2-ethoxyethanol, 303.15 K) of 0.00839 and a solubility (mole fraction) (in 2-ethoxyethanol, 308.15 K) of 0.01. It also gave a solubility (mole fraction) (in 2-ethoxyethanol, 313.15 K) of 0.0117, a solubility (mole fraction) (in 2-ethoxyethanol, 318.15 K) of 0.0141 and a solubility (mole fraction) (in 2-ethoxyethanol, 323.15 K) of 0.0168. For the same compound, the solubility (mole fraction) (in 2-methoxyethanol, 278.15 K) was 0.00727, the solubility (mole fraction) (in 2-methoxyethanol, 283.15 K) was 0.00895 and the solubility (mole fraction) (in 2-methoxyethanol, 288.15 K) was 0.011. The solubility (mole fraction) (in 2-methoxyethanol, 293.15 K) was 0.013, the solubility (mole fraction) (in 2-methoxyethanol, 298.15 K) was 0.0152 and the solubility (mole fraction) (in 2-methoxyethanol, 303.15 K) was 0.0185. For the same compound, the solubility (mole fraction) (in 2-methoxyethanol, 308.15 K) was 0.0218, the solubility (mole fraction) (in 2-methoxyethanol, 313.15 K) was 0.026 and the solubility (mole fraction) (in 2-methoxyethanol, 318.15 K) was 0.0311. The solubility (mole fraction) (in 2-methoxyethanol, 323.15 K) was 0.0374, the solubility (mole fraction) (in DMAc, 278.15 K) was 0.0679 and the solubility (mole fraction) (in DMAc, 283.15 K) was 0.074. For the same compound, the solubility (mole fraction) (in DMAc, 288.15 K) was 0.0817, the solubility (mole fraction) (in DMAc, 293.15 K) was 0.0902 and the solubility (mole fraction) (in DMAc, 298.15 K) was 0.0988. The solubility (mole fraction) (in DMAc, 303.15 K) was 0.108, the solubility (mole fraction) (in DMAc, 308.15 K) was 0.12 and the solubility (mole fraction) (in DMAc, 313.15 K) was 0.133. It also gave a solubility (mole fraction) (in DMAc, 318.15 K) of 0.145, a solubility (mole fraction) (in DMAc, 323.15 K) of 0.157 and a solubility (mole fraction) (in DMSO, 288.15 K) of 0.0689. It also gave a solubility (mole fraction) (in DMSO, 293.15 K) of 0.0786, a solubility (mole fraction) (in DMSO, 298.15 K) of 0.0902 and a solubility (mole fraction) (in DMSO, 303.15 K) of 0.103. The solubility (mole fraction) (in DMSO, 308.15 K) was 0.117, the solubility (mole fraction) (in DMSO, 313.15 K) was 0.134 and the solubility (mole fraction) (in DMSO, 318.15 K) was 0.152. It also gave a solubility (mole fraction) (in DMSO, 323.15 K) of 0.172, a solubility (mole fraction) (in acetic acid, 293.15 K) of 0.013 and a solubility (mole fraction) (in acetic acid, 298.15 K) of 0.0172. For the same compound, the solubility (mole fraction) (in acetic acid, 303.15 K) was 0.0227, the solubility (mole fraction) (in acetic acid, 308.15 K) was 0.0292 and the solubility (mole fraction) (in acetic acid, 313.15 K) was 0.0387. It also gave a solubility (mole fraction) (in acetic acid, 318.15 K) of 0.0547, a solubility (mole fraction) (in acetic acid, 323.15 K) of 0.07 and a solubility (mole fraction) (in acetonitrile, 278.15 K) of 0.00704. It also gave a solubility (mole fraction) (in acetonitrile, 283.15 K) of 0.00827, a solubility (mole fraction) (in acetonitrile, 288.15 K) of 0.0105 and a solubility (mole fraction) (in acetonitrile, 293.15 K) of 0.0125. The solubility (mole fraction) (in acetonitrile, 298.15 K) was 0.0149, the solubility (mole fraction) (in acetonitrile, 303.15 K) was 0.0183 and the solubility (mole fraction) (in acetonitrile, 308.15 K) was 0.0227. For the same compound, the solubility (mole fraction) (in acetonitrile, 313.15 K) was 0.0278, the solubility (mole fraction) (in acetonitrile, 318.15 K) was 0.0344 and the solubility (mole fraction) (in acetonitrile, 323.15 K) was 0.0422. It also gave a solubility (mole fraction) (in methanol, 278.15 K) of 0.000628, a solubility (mole fraction) (in methanol, 283.15 K) of 0.000817 and a solubility (mole fraction) (in methanol, 288.15 K) of 0.00111. For the same compound, the solubility (mole fraction) (in methanol, 293.15 K) was 0.00141, the solubility (mole fraction) (in methanol, 298.15 K) was 0.00169 and the solubility (mole fraction) (in methanol, 303.15 K) was 0.00225. For the same compound, the solubility (mole fraction) (in methanol, 308.15 K) was 0.00294, the solubility (mole fraction) (in methanol, 313.15 K) was 0.00397 and the solubility (mole fraction) (in methanol, 318.15 K) was 0.00486. It also gave a solubility (mole fraction) (in methanol, 323.15 K) of 0.0063, a solubility (mole fraction) (in propionic acid, 278.15 K) of 0.000769 and a solubility (mole fraction) (in propionic acid, 283.15 K) of 0.00113. The solubility (mole fraction) (in propionic acid, 288.15 K) was 0.00147, the solubility (mole fraction) (in propionic acid, 293.15 K) was 0.00185 and the solubility (mole fraction) (in propionic acid, 298.15 K) was 0.00252. The solubility (mole fraction) (in propionic acid, 303.15 K) was 0.00329, the solubility (mole fraction) (in propionic acid, 308.15 K) was 0.00406 and the solubility (mole fraction) (in propionic acid, 313.15 K) was 0.00562. The solubility (mole fraction) (in propionic acid, 318.15 K) was 0.00739 and the solubility (mole fraction) (in propionic acid, 323.15 K) was 0.00939.
